Reference: patent publication US11236122B2, “Triterpene amine derivatives” (DFH THERAPEUTICS, priority 2018, dated 2022)
Where a name gives a salt, the structure may show the parent alone.

What was measured:
[1] = tested on: HIV-1 clade C ZM247; assay: CA-SP1 accumulation assay (immunoblot), clade C ZM247; format: cell-based; details: head prints K3016
Protocol: Compound evaluation was performed against a panel of HIV-1 Clade C isolates K3016, pindieC1, and ZM247. The three isolates all contain the SP1-A7V. Clade B NL4-3 was included as the […] control.
Plasmids, tissue culture and transfections. HIV-1 clade B molecular clone NL4-3 and cade C clones K3016, ZM247 were obtained from Dr. Christina Ochsenbauer, University of Alabama, USA. Both K3016 and ZM247 were constructed using viral strains from South Africa. The HIV-1 clade C molecular clone pindieC1 was obtained from Dr. Uday Ranga, JNCASR, India. This clone was constructed using an HIV strain from India. HEK-293T and TZM-bl cells were propagated in Dulbecco's modified Eagle's medium (DM4EM) containing 10% fetal bovine serum (FBS). HUT-R5 cells were propagated in RPM 1640 medium supplemented with 10% FBS. For transfections, HEK-293T cells were grown in six well plates to about 80% confluency. Cells were transfected using Lipofectamine 2000 (invitrogen, USA) following manufacturer's recommendations. For viral replication assays, HUT-R5 T-cells were transfected using DEAE dextran as described in Waheed, A. A., Ono, A., and Freed, E. O.; Methods for the study of HIV-1 assembly; Methods Mol. Biol. Clifton N.J. 485, 163-184 (2009).
Preparation of viral stocks. Virus stocks were prepared by transfecting HEK-293T cells with HIV-1 DNAs (3 μg). 24 h post-transfection, the culture medium was replaced with fresh DMEM and incubated for another 2 h. Compounds tested were maintained in the culture throughout transfection. The culture supernatant was centrifuged at 845×g for 3 min to remove cellular debris. The clarified supernatants were filtered (pore size 0.45 µm filter disc) to remove residual cellular contaminants. For determination of viral infectivity, the un-concentrated virus was used to infect TZM-bl cells. For the CA-SP1 accumulation assay, the virus was pelleted by ultra-centrifugation at 210,100×g for 1 h at 4° C. using SW41Ti rotor (Beckman Coulter, USA).
CA-SP1 accumulation assay. To measure accumulation of CA-SP1, immunoblot analysis of virus-associated proteins was performed. The virus pellet was resuspended in radioimmunoprecipitation assay (RIPA) buffer (50 mM Tris-HCl pH 8.0, 150 mM sodium chloride, 1.0% NP-40, 0.5% sodium deoxycholate, 0.1% SDS) containing 1×protease inhibitor cocktail (Roche, Germany). The viral lysates were subjected to SDS-polyacrylamide gel electrophoresis (15% gel). Proteins were transferred to polyvinylidene difluoride membranes and reacted with HIV-IgG obtained from the NIH AIDS Reagent Program (catalog no. 3957) followed by incubation with HRP-conjugated anti-human secondary antibodies (GE Healthcare, UK). The proteins were visualized by enhanced chemiluminescence (Pierce, USA) and the bands were quantified using ImageJ software (http://imagej.nih.gov/ij/).

[2] = Cytotoxicity assay CellTiter-Blue, MT-4; format: cell-based; details: human; MT-4 cells, 4 to 8 days; mean ± SEM, three experiments
Protocol: (§1) Cytotoxicity assays. Cytotoxicity was measured with CellTiter-Blue® Cell Viability Assay according to the manufacturer's protocol (Promega). Two cell lines, MT-4 and HeLa, were used in this assay. Cells were incubated with serial dilution of compounds at 37° C. for 4 to 8 days and subjected to CellTiter-Blue Reagent. The fluorescent signal was measured at 560 nm Ex/590 nm Em by a plate reader (TECAN, Infinite® M1000 PRO). The 50% cytotoxic concentrations (CC50s) were defined as compound concentrations at which the fluorescent signals were reduced by 50%/relative to the no-inhibitor (DMSO only) controls using GraphPad Prism 6 software and are reported in Table 1.

[3] = tested on: WT pNL4-3 in MT-4 cells; assay: Antiviral assay in MT-4 cells (RT readout), WT NL4-3; format: cell-based, HIV-1; details: Human immunodeficiency virus 1, NL43, MT4, 96 h, read-out: Antiviral Assay IC50 (nM) NL4-3
Protocol: (§2) Cell culture, plasmids and transfections. The MT-4 T-cell line was maintained in RPMI-1640 medium supplemented with 10% (vol/vol) fetal bovine serum (FBS), 2 mM glutamine, 100 U/mL penicillin and 100 μg/mL streptomycin at 37° C. in a humidified 5% CO2 atmosphere. HeLa and 293T cells were maintained in Dulbecco's modified Eagle's medium (DMEM) supplemented with 5% (vol/vol) FBS, 2 mM glutamine, 100 U/mL penicillin and 100 μg/mL streptomycin. Molecular clones used in this study were WT pNL4-3 and the derivative encoding a Val-to-Ala mutation at SP1 residue 7, referred to as SP1-V7A. The MT-4 T-cell line was transfected the DEAE/dextran procedure; HeLa and 293T cells were transfected with linear polyethylenimine (L-PEI) or Lipofectamine 2000 (Invitrogen) as recommended by the supplier.
(§3) Antiviral assays. To produce HIV-1 stocks, 293T cells were transfected with WT pNL4-3 or the SP1-V7A derivative and culture supernatants were collected 24 h post transfection. RT-normalized virus supernatants were used to infect MT-4 cells at room temperature for 30 min. Cells were then cultured in the presence of serial dilutions of compounds. […] The IC50s in primary peripheral blood mononuclear cells (PBMCs) were calculated with a multi-clade panel of HIV-1 isolates by Southern Research Institute (Frederick, Md.). […]

[4] = Cytotoxicity assay CellTiter-Blue, HeLa; format: cell-based; details: human; HeLa cells, 4 to 8 days; mean ± SEM, three experiments
Protocol: as §1

[5] = tested on: pNL4-3 SP1-V7A in MT-4 cells; assay: Antiviral assay in MT-4 cells (RT readout), SP1-V7A; format: cell-based, HIV-1; details: Human immunodeficiency virus 1, MT4, 96 h, read-out: Antiviral Assay IC50 (nM) SP1 V7A
Protocol: as §2, §3

C=C(C)[C@@H]1CC[C@]2(CCNCCN3CCS(=O)(=O)CC3)CC[C@]3(C)[C@H](CC[C@@H]4[C@@]5(C)CC[C@H](OC(=O)CC(C)(C)C(=O)O)C(C)(C)[C@@H]5CC[C@]43C)[C@@H]12 [Compound 51ee, (3β)-17-[[[2-[2-(1,1-Dioxothiomorpholin-4-yl)]Ethyl]Amino]Ethyl]-28-norlup-20(29)-en-3-ol, 3-(1-Hydrogen 2,2-Dimethylbutanedioate)]
% CA-SP1 Accumulation K3016 10 nM [1]: 14.2%
% CA-SP1 Accumulation K3016 100 nM [1]: 32.6%

C=C(C)[C@@H]1CC[C@]2(CCNCCN3CCN(S(C)(=O)=O)CC3)CC[C@]3(C)[C@H](CC[C@@H]4[C@@]5(C)CC[C@H](OC(=O)CC(C)(C)C(=O)O)C(C)(C)[C@@H]5CC[C@]43C)[C@@H]12 [Compound 51ff, (3β)-17-[2-[[2-[4-(Methylsulfonyl)piperazin-1-yl]ethyl]amino]ethyl]-28-norlup-20(29)-en-3-ol, 3-(1-Hydrogen 2,2-Dimethylbutanedioate)]
% CA-SP1 Accumulation K3016 10 nM [1]: 12.8%
% CA-SP1 Accumulation K3016 100 nM [1]: 19.1%

C=C(C)[C@@H]1CC[C@]2(CCNC3CCN(CCO)CC3)CC[C@]3(C)[C@H](CC[C@@H]4[C@@]5(C)CC[C@H](OC(=O)CC(C)(C)CC(=O)O)C(C)(C)[C@@H]5CC[C@]43C)[C@@H]12 [Compound 51f, (3β)-17-[2-[[1-(2-Hydroxyethyl)piperidin-4-yl]amino]ethyl]-28-norlup-20(29)-en-3-ol, 3-(Hydrogen 3,3-Dimethylpentanedioate), Bis(trifluoroacetate) Salt]
CC50 [2]: 366 ± 44 nM
IC50 [3]: 21 ± 19 nM
CC50 [4]: > 1000 nM
IC50 [5]: 8 ± 2 nM

C=C(C)[C@@H]1CC[C@]2(CCNCCN3CCN(Cc4ccccc4)CC3)CC[C@]3(C)[C@H](CC[C@@H]4[C@@]5(C)CC[C@H](OC(=O)CC(C)(C)C(=O)O)C(C)(C)[C@@H]5CC[C@]43C)[C@@H]12 [Compound 51hh, (3β)-17-[2-[[2-[4-(Phenylmethyl)piperazin-1-yl]ethyl]amino]ethyl]-28-norlup-20(29)-en-3-ol, 3-(1-Hydrogen 2,2-Dimethylbutanedioate)]
% CA-SP1 Accumulation K3016 10 nM [1]: 7.0%
% CA-SP1 Accumulation K3016 100 nM [1]: 27.2%
